Data taken from ChEMBL document CHEMBL3507680, “University of Dundee, Gates Library screen for HepG2 cell viability”.

Assay: Human HepG2 cell viability assay in 384 well format
Type: toxicity, cell-based
Design: dose 125 nL, time 70.5 hour; concentration not given beside the values
Conditions: HepG2 cells, read-out: Inhibition

| Compound | cytotoxicity at 70.5 h [%] |
| --- | --- |
| O=C(NCCc1ccccc1Cl)NCC1(O)CCSC1 (stereo not given) | 3.74 |
| O=C(NCc1ccc(Cl)cc1Cl)NCC1(O)CCSC1 (stereo not given) | 18.5 |
| CC(C)c1nnc(CNc2ccc(SC(F)(F)F)cc2)o1 | 36.9 |
| COc1ccnc(NC(=O)c2cnccn2)c1 | -7.62 |
| O=C(c1ccc(=O)[nH]n1)N1CCc2ccccc21 | -0.117 |
| CCCc1noc(CN(C)Cc2ccc3c(c2)OCO3)n1 | 17.8 |
| COc1c(C(=O)N2CCOC(c3cccs3)C2)c(C)nn1C (stereo not given) | -5.91 |
| c1cc(NCc2cscn2)cc(OCCN2CCCCC2)c1 | -2.11 |
| Cc1csc(CNc2cccc(OCCN3CCCC3)c2)n1 | 19.9 |
| CC(NCc1cccc2c1OCCO2)c1cc2c(cc1Br)OCCO2 (stereo not given) | -7.55 |
| CCN(C(c1cccnc1)c1ccc(F)cc1F)S(C)(=O)=O (stereo not given) | -12.1 |
| CCN(Cc1nc2c(cnn2C)c(=O)[nH]1)c1cccc(C)c1C | -0.49 |
| CN(CCc1ccncc1)C(=O)C1CSCN1C(=O)CC(C)(C)C (stereo not given) | -12.5 |
| CCc1nnc2n1CCN(Cc1noc(-c3cccc(C)c3)n1)C2 | -2.11 |
| CCc1cnccc1C(=O)NC1CCN(C(=O)C2CCCCC2)CC1 | -8.95 |
| CC(O)CN1CCC(CN(C)CCC(=O)NC2CCCC2)CC1 (stereo not given) | -1.49 |
| CC(c1nnc(-c2cccs2)o1)N1CCc2cncnc2C1 (stereo not given) | -1.71 |
| CC(C)=CCN1CCN(C(=O)C2CCS(=O)(=O)C2)CC1 (stereo not given) | 0.157 |
| O=C1COc2cc(C(=O)NCc3ccc(Cl)s3)ccc2N1 | -2.5 |
| CS(=O)(=O)NC1CCCN(C(=O)Nc2ccccc2Cn2cccn2)C1 (stereo not given) | 14.4 |
| CCc1ccc(CN(C(=O)CCn2cc(S(N)(=O)=O)cn2)C2CC2)cc1 | -2.81 |
| NS(=O)(=O)c1cnn(CCC(=O)N(Cc2ccccc2)C2CC2)c1 | -7.26 |
| Cc1nn(C)c(N(C)C)c1CNC1CCCCNC1=O (stereo not given) | -4.25 |
| O=c1oc2ccccc2n1CCCN1CCCC1c1ccc(O)cc1 (stereo not given) | -1.72 |

| Compound | cytotoxicity at 70.5 h [%] |
| --- | --- |
| CC(C)(C(N)=O)S(=O)(=O)c1ccc(Br)cc1 | -6.61 |
| NS(=O)(=O)c1cnn(CCC(=O)N(C2CCCCC2)C2CC2)c1 | -3.97 |
| Cc1ccc(N2CCCN(C(=O)c3n[nH]c4c3CCC4)CC2)nn1 | 1.32 |
| O=C(Nc1ccccc1Cn1cccn1)N1CCC(N2CCCC2)C1 (stereo not given) | -2.57 |
| CCOc1ccc(S(=O)(=O)C(C)C(=O)Nc2cc(C)no2)cc1 (stereo not given) | -4.64 |
| Cc1cc(CNC2(c3ccccc3)CCCCC2)on1 | -0.993 |
| Cc1nc(O)ccc1C(=O)NCc1ncoc1C | -2.74 |
| Cc1[nH]ccc1C(=O)NCc1ncoc1C | -2.23 |
| CN(C)c1cccc(CNCc2ccc(N3CCOCC3)cc2)c1 | 14 |
| CC(O)CN1CCC(CN(C)CC(=O)NC2CCOCC2)CC1 (stereo not given) | -2.54 |
| O=C(Nc1cccc(Cn2cccn2)c1)N1CCCC(N2CCCC2)C1 (stereo not given) | -4.22 |
| Cn1cc(C2CCCN2CCCn2c(=O)oc3ccccc32)cn1 (stereo not given) | 12.6 |
| CN(Cc1cccs1)c1cc(N2CCCC2CO)ncn1 (stereo not given) | -1.74 |
| CCN(CC)S(=O)(=O)CCNc1nnc(C(C)C)s1 | 6.99 |
| CC(C)CCNc1nnc(C(C)C)s1 | -3.84 |
| O=S(=O)(NCCSc1nncn1C1CC1)c1ccccc1 | 30.9 |
| CC(C)(C)CCN1CCN(c2snc(Cl)c2C#N)CC1 | 4.63 |
| Cc1cnn(CC(C)NCc2c(C)nn(Cc3ccccc3)c2C)c1 (stereo not given) | -4.31 |
| CN(C)C(=O)Cc1ccccc1NCc1cc(C#N)ccc1F | -2.64 |
| CC(C)c1nc(/C=C/c2cnn(-c3ccc(Cl)cc3)c2)ncc1C(=O)O | 22.7 |
| Cc1[nH]ccc1C(=O)N1CCCN1C(=O)OC(C)(C)C | 0.542 |
| CC(C)(NC(=O)Cc1ccccc1F)C(C)(C)C(=O)O | -0.854 |
| O=C(CCn1nnc2ccccc2c1=O)N(CC1CCOC1)C1CC1 (stereo not given) | 1.53 |
| CCn1nc(C)c(CNCCn2cc(C)cn2)c1C | -4.46 |

| Compound | cytotoxicity at 70.5 h [%] |
| --- | --- |
| CCC(CC)n1ncc(C(=O)NS(=O)(=O)c2ccsc2)c1C | 21.2 |
| CCCN1CCC(N2CCN(c3cc(C)nc(COC)n3)CC2)CC1 | 3.64 |
| Cc1cc(CN(CCO)c2ccc(Br)cc2)on1 | -0.419 |
| CC(=O)N(Cc1noc(C)n1)C1CCN(CC(=O)N(C)C2CC2)C1 (stereo not given) | -2.89 |
| CN(CCc1ccccn1)C(=O)C(O)c1cc(Cl)cc(Cl)c1 (stereo not given) | 42.8 |
| Cc1cc(C)cc(OCC(=O)N2CCCC2)c1 | -21.3 |
| Cc1cc(C)cc(OCC(=O)N2CCC2)c1 | -22.1 |
| CC(Cn1cccn1)NC(=O)c1ccsc1 (stereo not given) | -11.4 |
| CCCn1cc(NC(=O)c2cccc3cccnc23)ccc1=O | -17.8 |
| NC(=O)CN1CCCN(C(=O)COc2cccc(F)c2)CC1 | -25.4 |
| c1cnn(CCNCc2cnc(N3CCOCC3)nc2)c1 | 41.2 |
| Cc1nccn1CCCNc1ccc(Cl)c(C#N)n1 | -24.8 |
| O=C1CCC(C(=O)Nc2ccc(=O)n(Cc3ccc(Cl)c(Cl)c3)c2)N1 (stereo not given) | -16.6 |
| COCc1noc(-c2cc(Cl)c3c(c2)OCCCO3)n1 | -8.58 |
| COCCc1noc(-c2cc(Cl)c3c(c2)OCCCO3)n1 | -19.1 |
| COc1ccc2c(OCC(=O)NC(C)(C)C)ccnc2c1 | -18.7 |
| CS(=O)(=O)CCSCc1cc(F)cc2cccnc12 | -16.7 |
| COCC(C)NC(=O)CN1CCCC1 (stereo not given) | -23.1 |
| CC(C)c1nsc(N2CCOCC2)n1 | -27.4 |
| N#Cc1cccc(CS(=O)(=O)NCC(O)Cc2ccccc2)c1 (stereo not given) | -0.967 |
| CCc1nc(NS(=O)(=O)c2ccc(F)cc2C)no1 | -5.01 |
| CSCc1nc(C(C)(C)NC(=O)OC(C)(C)C)no1 | -7.03 |
| O=S(=O)(CCNCc1cccc2c1OCCO2)N1CCOCC1 | 5.04 |
| CCc1nc(C(=O)NCc2ccc(N3CCNC(=O)C3)c(F)c2)c[nH]1 | 5.08 |

| Compound | cytotoxicity at 70.5 h [%] |
| --- | --- |
| CCC(CNC(=O)c1cc(OC)ccc1Br)N1CCc2ccccc2C1 (stereo not given) | 7.55 |
| COc1ccc(CCNC(=O)NC2CCCC2)cc1OC | -12.5 |
| COCCn1cc(C(=O)N2CCCC2c2cc(C)no2)ccc1=O (stereo not given) | -11.6 |
| COc1ccc(C(CO)NC(=O)Nc2cccc(C#N)c2)cc1 (stereo not given) | -8.65 |
| COc1cc(C)nc(N2CCN(C(=O)CCc3nccs3)CC2)n1 | 9.16 |
| COc1cc(C)nc(N2CCN(C(=O)CCc3cscn3)CC2)n1 | -6.3 |
| N#Cc1cccc(NC(=O)N[C@H](CO)c2ccccc2)c1 | -10.8 |
| Cc1nccc(CNC(=O)NCCOc2ccc(F)c(F)c2)n1 | -2.22 |
| CC(c1ccc(Cl)cc1)N1CCN(CCS(C)(=O)=O)CC1 (stereo not given) | -6.43 |
| N#Cc1cc(NC(=O)c2ccccc2)ccc1N1CCC(O)CC1 | 1.64 |
| COc1ccccc1OCC(=O)NS(=O)(=O)c1ccccc1F | -0.501 |
| CC(NC1CCN(CCS(C)(=O)=O)CC1)c1ccc(Cl)cc1 (stereo not given) | 19.3 |
| CC(=O)c1cccc(OCCCC(=O)N(C)Cc2cccc(O)c2)c1 | -6.39 |
| O=C(CN1CCCCC1Cn1cncn1)NC1CCN(C2CC2)CC1 (stereo not given) | -1.8 |
| O=C(CN1CCCCC1Cn1cccn1)NC1CCN(C2CC2)CC1 (stereo not given) | -7.07 |
| O=C(CN1CCCC1Cn1cccn1)NC1CCOCC1 (stereo not given) | -5.99 |
| c1coc(-c2noc(CN3CCC(c4ccn[nH]4)CC3)n2)c1 | -8.33 |
| CCOC(C)c1nc(CN2CCNCC2)cs1 (stereo not given) | 10.9 |
| COCCn1cc(C(=O)N2CCCC2c2cccc(F)c2)ccc1=O (stereo not given) | -4.27 |
| O=C(NCc1ccccc1CN1CCC(O)CC1)Nc1cccnc1 | -4.5 |
| Cc1nn(C)c(C)c1CNC1CCOc2ccccc21 (stereo not given) | -8.58 |
| CCCc1noc(CCC(=O)NC(C)c2nnc3n2CCCCC3)n1 (stereo not given) | -9.55 |
| O=C(C1CCCc2[nH]ncc21)N1CCCCCC1 (stereo not given) | -7.74 |
| CCNC(=O)CN1CCCN(C(=O)C2CCCc3[nH]ncc32)CC1 (stereo not given) | -8.68 |

| Compound | cytotoxicity at 70.5 h [%] |
| --- | --- |
| CCC(CC)c1cc(CNC(=O)N2CCCC(N(C)C)C2)on1 (stereo not given) | -9.56 |
| CCOC(=O)NC(CNC(=O)c1ccccn1)CC(C)C (stereo not given) | -4.75 |
| CN1CCN(Cc2ccccc2CNC(=O)c2ccc(Br)cc2)CC1 | -7.15 |
| CCN(CC(=O)NC)S(=O)(=O)N1CCCCCC1 | -10.4 |
| Cc1cc(S(=O)(=O)Nc2cccc(-n3cccc3)c2)sc1C(=O)O | -13 |
| O=C(NC1CCS(=O)(=O)C1)c1sccc1-c1ccc(F)cc1 (stereo not given) | -7.53 |
| COc1c(CNC2CCCc3ccccc32)c(C)nn1C (stereo not given) | -8 |
| O=C(NCC1CCS(=O)(=O)C1)c1sccc1-c1ccc(F)cc1 (stereo not given) | 8.07 |
| COc1ccnc(N2CCN(C(=O)c3csc(C4CC4)n3)CC2)n1 | -6.71 |
| O=C(NCC1CC1)Nc1cccc(N2CCN(CC3CC3)CC2)c1 | -0.269 |
| COCc1cccc(NC(C)C(=O)N(C)Cc2ccccc2)c1 (stereo not given) | 10.7 |
| Cc1cnn(CC2CN(CCS(=O)(=O)c3ccccc3)CCO2)c1 (stereo not given) | -9.7 |
| Cc1cn(CC(=O)NC2CCN(S(C)(=O)=O)CC2)c2ccccc12 | -4.04 |
| Cc1cnn(CC2CN(CCN3CCCC3=O)CCO2)c1 (stereo not given) | -11.5 |
| Cc1cnc(NC(=O)N2CCCC2)s1 | -12 |
| COc1ccc(F)cc1C(C)NC(=O)c1nnc(C)s1 (stereo not given) | -5.29 |
| CC(O)CC(C)(C)CNC(=O)NCc1cccc(-n2ccnc2)c1 (stereo not given) | -7.65 |
| O=C(C1CCCc2[nH]ncc21)N1CCCC1 (stereo not given) | -4.89 |
| CCN(CC(=O)NC(C)C)S(=O)(=O)N1CCC(C)C1 (stereo not given) | -6.99 |
| CC(=O)N1CCN(Cc2nnc(C(C)(C)C)o2)CC1 | -8.04 |
| CNC(=O)CS(=O)(=O)Cc1coc(-c2ccc(OC)cc2)n1 | -12.7 |
| CNC(=O)CS(=O)(=O)Cc1coc(-c2ccc(F)cc2)n1 | -9.1 |
| CC(C)(C)c1nc(CN2CCC(c3nc4cc(Cl)ccc4o3)CC2)no1 | 15.4 |
| CCCNC(c1ccc(F)cc1)c1cccnc1 (stereo not given) | -19.4 |
